Measurements reported in US6664271B1, “Immunopotentiator agents” (Eli Lilly and Company, priority 1999, dated 2003).

Tested on: chicken leukocytes
Assay: cells
Type: cell-based
Conditions: for minimal effective concentration: Gallus gallus, Leukocyte, read-out: MSC (Minimum Stimulatory Concentration)
Experimental: Various compounds of Formula I were evaluated for in vitro T-lymphocyte blastogenic activity with chicken leukocytes according to the steps described in the following procedure:
(a) Exsanguination step. The leukocytes were obtained from 3-6 week old Hubbard/Peterson broiler chickens. Initially, the chickens were rendered unconscious in a CO2 chamber. The chickens were then exsanguinated via cardiac puncture. In the exsanguination procedure, a syringe was connected to a needle, and the needle was inserted into the area at the base of the neck under the “V” formed by the breast and sternum. After the needle was properly inserted, continuous vacuum was applied to a syringe (connected to the needle) by pulling back on the plunger. It is important to promptly carry out this withdrawal action, because there is only a 10-15 seconds time period after the blood has starting flowing into the syringe before the blood coagulates, and becomes unusable. As soon as the syringe is full (or prior to complete filling if too much time has elapsed such that the blood begins to coagulate), the whole uncoagulated blood is transferred to a tube having the anticoagulant EDTA therein. The tube is then rotated to mix the whole blood and the EDTA. Alternatively, the whole blood can be withdrawn directly into a vacuum container already having EDTA therein, rather than into a syringe.
(b) Leukocyte isolation step. Numerous methods for isolating leukocytes from (uncoagulated) whole blood are known in the art. In a preferred method, the sterile whole blood was combined with methylcellulose (1.5:1). Any blood containing clots was discarded. The mixture was centrifuged at 30×g for ten minutes (300 rpm on Beckman GS-6R centrifuge). The top layer (leukocytes in supernatant) was decanted into a sterile 50 ml conical tube, while taking care to prevent contamination of the sample by red blood cells. The decanted layer was then centrifuged at 200×g for ten minutes (1500 rpm on the Beckman GS-6R centrifuge). The supernatant liquid was discarded, and the resulting cell “pellet” was retained.
The cells were then washed in a solution containing 10 ml PBS (phosphate buffered saline) and Gentamycin (gentamicin sulfate) at a concentration of 50 μg/ml. This solution was centrifuged at 100×g (1000 rpm on the Beckman centrifuge) for five minutes, and the supernatant liquid was discarded. The washing step (including the centrifuging at 100×g) was repeated to ensure complete removal of the methylcellulose. The use of media such as DMEM ([…]) was avoided in the washing steps, since such media may cause agglutination of the white blood cells. Finally, the cells were then suspended in an appropriate media, such as RPMI 1640 tissue cell culture medium, supplemented with phenol red, NaHCO3, and L-Glutamide. Supplemented RPMI 1640 is available from Sigma-Aldrich Chemical Co.
(c) Cell counting and cell viability step. The cells were counted and checked for viability using the Trypan Blue method of exclusion. 0.1 ml of the cell suspension was placed in a 4-5 ml small culture tube along with 0.7 ml HBSS (Hank's Buffered Saline Solution), available from Sigma-Aldrich, and 0.2 ml of a 0.4% solution of aqueous Trypan Blue stain, available from GIBCO BRL, of Grand Island, N.Y. The components were mixed thoroughly but gently, and allowed to sit for 5 minutes (no longer than 15 minutes). The components should not be exposed to the stain for extended periods of time, because such extended exposure may permit viable cells, as well as non-viable cells, to take up dye.
A cover slip was placed on a Bright Line hemacytometer, available from Howser Scientific, and 10 μl of the mixture from the tube was transferred to each chamber. Non-viable cells appear blue under a microscope. The viable cells in one of the 16-square corners of the hemacytometer were then counted. […]

[1] = chicken leukocytes, read at 72 hours
[2] = Hubbard/Peterson broiler, chicken, 72 h

Row | Compound | minimal effective concentration [1] [µg/mL] | MTC (Maximum Tolerable Concentration prior to causing cytotoxicity) [2] [µg/mL] | MSC (Minimum Stimulatory Concentration) [1] [µg/mL] | MTC (Maximum Tolerable Concentration prior to causing cytotoxicity) [1] [µg/mL]
1 | CCOC(=O)CC1CCCN(C(=O)Cc2cccs2)C1 (stereo not shown) [Example 27, Ethyl 1-(2-Thiopheneacetyl)-3-piperidinylacetate] | 1 | 1 |  | 
2 | CCOC(=O)CC1CCCCN1C(=O)Cc1cccs1 (stereo not shown) [Example 28, Ethyl 1-(2-Thiopheneacetyl)-2-piperidinylacetate] |  |  | 0.1 | 
3 | CCOC(=O)C1CCC(C)N(C(=O)Cc2cccs2)C1 (stereo not shown) [Example 33, Ethyl 1-(2-Thiopheneacetyl)-6-methyl-3-piperidinecarboxylate] | 0.1 | 10 |  | 
4 | CCOC(=O)C1CCC[N+](C)(Cc2ccccc2)C1.[I-] (stereo not shown) [Example 35, Ethyl 1-Benzyl-3-piperidinecarboxylate 1-Methiodide] |  |  | 10 | 
5 | CCOC(=O)C1CCCN(C(=O)c2ccc(-c3ccccc3)cc2)C1 (stereo not shown) [Example 36, Ethyl 1-(4-Phenylbenzoyl)-3-piperidinecarboxylate] | 0.1 | 10 |  | 
6 | O=C(O)[C@H]1CCCN(C(=O)Cc2cccs2)C1 [Example 37, (S)-1-(2-Thiopheneacetyl)-3-piperidine Carboxylic Acid] | 10 | 1000 |  | 
7 | COC(=O)C1CN(C(=O)OCc2ccccc2)CCC1=O (stereo not shown) [Example 38, Methyl 1-Benzyloxycarbonyl-4-oxo-3-piperidinecarboxylate] | 1 | 1 |  | 
8 | CCOC(=O)C1(C)CCCN(C(=O)c2ccccc2)C1 (stereo not shown) [Example 39, Ethyl 1-Benzoyl-3-methyl-3-piperidinecarboxylate] | 1 | 1 |  | 
9 | CNC(=O)N1C2CCC1C(C(=O)OC)C(=O)C2 (stereo not shown) [Example 40, 8-[(Methylamino)carbonyl]-3-oxo-8-azabicyclo[3.2.1]octane-2-carboxylic Acid, Methyl Ester] | 0.01 |  |  | 10
10 | O=C(Cc1cccs1)N1CCCC(O)C1 (stereo not shown) [Example 41, 1-(2-Thiopheneacetyl)-3-hydroxypiperidine] | 10 | 100 |  | 
11 | N.O=C(O)[C@H]1CCCN(C(=O)Cc2cccs2)C1 [Example 42, (S)-1-(2-Thiopheneacetyl)-3-piperidinecarboxylic Acid Ammonium Salt] | 1 |  |  | 10
12 | CCOC(=O)C1CCCN(C(=O)CCc2ccccc2)C1 (stereo not shown) [Example 43, Ethyl 1-(1-Phenylpropionyl)-3-piperidinecarboxylate] |  |  | 1 | 
13 | CS(=O)(=O)OC1CCCN(C(=O)Cc2cccs2)C1 (stereo not shown) [Example 44, 1-(2-Thiopheneacetyl)-3-(O-methanesulfonyl)piperidine] |  |  | 1 | 10
14 | CCC(=O)OC1CCCN(C(=O)Cc2cccs2)C1 (stereo not shown) [Example 46, 1-(2-Thiopheneacetyl)-3-(O-propionyl)piperidine] |  |  | 1 | 10
15 | CCOC(=O)[C@H]1CCCN(C(=O)NCc2ccccc2)C1 [Example 48, (S)-Ethyl 1-(N-Benzylurea)-3-piperidinecarboxylate] |  |  | 10 | 
16 | CCOC(=O)[C@H]1CCCN(C(=O)NC)C1 [Example 49, (S)-Ethyl 1-(N-Methylurea)-3-piperidinecarboxylate] |  |  | 1 | 10
17 | O=C(O)[C@H]1CCCN(C(=O)c2ccccc2)C1 [Example 50, (S)-1-Benzoyl-3-piperidinecarboxylic Acid] | 1 | 10 |  | 
18 | COC(=O)[C@H]1CCCN(C(=O)c2ccccc2)C1 [Example 52, (S)-Methyl 1-Benzoyl-3-piperidinecarboxylate] | 0.1 | 10 |  | 
19 | CCCOC(=O)[C@H]1CCCN(C(=O)c2ccccc2)C1 [Example 53, (S)-Propyl 1-Benzoyl-3-piperidinecarboxylate] | 1 | 10 |  | 
20 | CCOC(=O)[C@H]1CCCN(CCCc2cccs2)C1 [Example 54, (S)-Ethyl 1-(2-Thienylpropyl)-3-piperidinecarboxylate] | 1 | 10 |  | 
21 | CCOC(=O)C1CC(C)CN(C(=O)Cc2cccs2)C1 (stereo not shown) [Example 57, Ethyl 1-(2-Thiopheneacetyl)-5-methyl-3-piperidinecarboxylate] | 10 | 10 |  | 
22 | O=C(Cc1cccs1)N1CCC[C@H](CO)C1 [Example 59] |  |  | 10 | 100
23 | CCOC(=O)C1CN(C(=O)Cc2cccs2)CCC1C (stereo not shown) [Example 62, Ethyl 1-(2-Thiopheneacetyl)4-methyl-3-piperidinecarboxylate] | 1 | 10 |  | 
24 | O=C[C@H]1CCCN(C(=O)Cc2cccs2)C1 [Example 63, (S)-1-(2-Thiopheneacetyl)-3-piperidinecarboxaldehyde] | 1 | 10 |  | 
25 | N#C[C@H]1CCCN(C(=O)Cc2cccs2)C1 [Example 64, (S)-1-(2-Thiopheneacetyl)-3-piperidinonitrile] | 1 | 10 |  | 
26 | CN(C)C(=O)C1CCC[N@+](C)(Cc2ccccc2)C1.[I-] (stereo partly drawn) [Example 71, (S)-N,N-Dimethyl 1-Benzyl-3-piperidinecarboxamide 1-methiodide] |  |  | 0.1 | 
27 | (S)-Ethyl 1-(2-Thiazyl)-3-piperidinecarboxylate 1-methiodide [Example 73] |  |  | 1 | 
28 | Ethyl 1-(2-Bromobenzoyl)-2-acetylpiperidinecarboxylate [Example 45] |  |  | 1 | 
